In PubChem BioAssay (NCI):
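Dose response: 5 concentrations. Exposure: 48 h. Format: 96-well plates. Endpoint: linear interpolation; highest concentration if not reached. GI50 is the concentration that inhibits growth by half. The concentration for full growth arrest is given as TGI.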

Columns and labels:
Assay in all cases: NCI-60 cell line screen, 48 h
OVCAR-3 ovarian = system: OVCAR-3 ovarian
MDA-MB-231 breast = system: MDA-MB-231 breast
UACC-62 melanoma = system: UACC-62 melanoma
NCI-H23 lung = system: NCI-H23 lung
NCI-H226 lung = system: NCI-H226 lung
OVCAR-5 ovarian = system: OVCAR-5 ovarian
ACHN renal = system: ACHN renal
SF-539 CNS = system: SF-539 CNS
MDA-MB-435 = system: MDA-MB-435
SK-MEL-28 melanoma = system: SK-MEL-28 melanoma
SN12C renal = system: SN12C renal
UO-31 renal = system: UO-31 renal
SK-OV-3 ovarian = system: SK-OV-3 ovarian
NCI/ADR-RES ovarian = system: NCI/ADR-RES ovarian
HCC-2998 colon = system: HCC-2998 colon
DU-145 prostate = system: DU-145 prostate
SK-MEL-5 melanoma = system: SK-MEL-5 melanoma
HOP-92 NSCLC = system: HOP-92 NSCLC
TK-10 renal = system: TK-10 renal
M14 melanoma = system: M14 melanoma
U251 CNS = system: U251 CNS
SK-MEL-2 melanoma = system: SK-MEL-2 melanoma
MOLT-4 leukemia = system: MOLT-4 leukemia
NCI-H522 lung = system: NCI-H522 lung
HOP-62 NSCLC = system: HOP-62 NSCLC
SNB-75 CNS = system: SNB-75 CNS
K-562 leukemia = system: K-562 leukemia
RPMI-8226 leukemia = system: RPMI-8226 leukemia
OVCAR-8 ovarian = system: OVCAR-8 ovarian
SNB-19 CNS = system: SNB-19 CNS
EKVX NSCLC = system: EKVX NSCLC
HS 578T breast = system: HS 578T breast
SF-268 CNS = system: SF-268 CNS
CAKI-1 renal = system: CAKI-1 renal
HCT-15 colon = system: HCT-15 colon
HT29 colon = system: HT29 colon
MALME-3M melanoma = system: MALME-3M melanoma
A549 NSCLC = system: A549 NSCLC
SF-295 CNS = system: SF-295 CNS
PC-3 prostate = system: PC-3 prostate
LOX IMVI melanoma = system: LOX IMVI melanoma
A498 renal = system: A498 renal
HCT-116 colon = system: HCT-116 colon
KM12 colon = system: KM12 colon
786-0 renal = system: 786-0 renal
RXF 393 renal = system: RXF 393 renal
HL-60(TB) leukemia = system: HL-60(TB) leukemia
OVCAR-4 ovarian = system: OVCAR-4 ovarian
SW-620 colon = system: SW-620 colon
IGROV1 ovarian = system: IGROV1 ovarian
CCRF-CEM leukemia = system: CCRF-CEM leukemia
UACC-257 melanoma = system: UACC-257 melanoma
BT-549 breast = system: BT-549 breast
COLO 205 colon = system: COLO 205 colon
NCI-H460 lung = system: NCI-H460 lung

Q: With `CC(=O)O[C@H]1CC[C@]2(C)[C@H]3CC=C4[C@@H]5CC(C)(C)CC[C@]5(C(=O)NCCNCCNCCN)CC[C@@]4(C)[C@]3(C)CC[C@H]2C1(C)C` as the molecule, how does the GI50 (OVCAR-3 ovarian) read?
A: The GI50 was 1760 nM.

Q: And the TGI (OVCAR-3 ovarian)?
A: The TGI was 3240 nM.

Q: And the GI50 (MDA-MB-231 breast)?
A: The GI50 was 1530 nM.

Q: And the TGI (MDA-MB-231 breast)?
A: The TGI was 3040 nM.

Q: And the GI50 (UACC-62 melanoma)?
A: Its GI50 is 1740 nM.

Q: And the TGI (UACC-62 melanoma)?
A: The TGI was 3180 nM.

Q: What about the GI50 (NCI-H23 lung) of the same molecule?
A: Its GI50 is 1800 nM.

Q: And the TGI (NCI-H23 lung)?
A: The TGI was 3570 nM.

Q: What about the GI50 (NCI-H226 lung) of the same molecule?
A: Its GI50 is 2180 nM.

Q: What about the TGI (NCI-H226 lung) of the same molecule?
A: The TGI was 4990 nM.

Q: What about the GI50 (OVCAR-5 ovarian) of the same molecule?
A: Its GI50 is 1670 nM.

Q: What about the TGI (OVCAR-5 ovarian) of the same molecule?
A: The TGI was 3130 nM.

Q: What about the GI50 (ACHN renal) of the same molecule?
A: The GI50 was 1750 nM.

Q: What about the TGI (ACHN renal) of the same molecule?
A: Its TGI is 3140 nM.

Q: And the GI50 (SF-539 CNS)?
A: The GI50 was 1690 nM.

Q: What about the TGI (SF-539 CNS) of the same molecule?
A: The TGI was 3170 nM.

Q: And the GI50 (MDA-MB-435)?
A: Its GI50 is 1670 nM.

Q: And the TGI (MDA-MB-435)?
A: Its TGI is 3100 nM.

Q: And the GI50 (SK-MEL-28 melanoma)?
A: The GI50 was 1740 nM.

Q: What about the TGI (SK-MEL-28 melanoma) of the same molecule?
A: Its TGI is 3210 nM.

Q: And the GI50 (SN12C renal)?
A: The GI50 was 1780 nM.

Q: What about the TGI (SN12C renal) of the same molecule?
A: Its TGI is 3370 nM.

Q: What does the source list for `CC(C)Cc1ccc(C(C)C(=O)NCc2ccc(Cn3c(=O)sn(CCCCl)c3=O)cc2)cc1` (configuration not stated)?
A: GI50 (UO-31 renal): 672 nM; TGI (UO-31 renal): 2080 nM; GI50 (OVCAR-3 ovarian): 738 nM; TGI (OVCAR-3 ovarian): 2030 nM; GI50 (SK-OV-3 ovarian): 6130 nM; TGI (SK-OV-3 ovarian): 20000 nM; GI50 (NCI/ADR-RES ovarian): 2110 nM; TGI (NCI/ADR-RES ovarian): 8250 nM; GI50 (HCC-2998 colon): 1850 nM; TGI (HCC-2998 colon): 3370 nM; GI50 (DU-145 prostate): 1460 nM; TGI (DU-145 prostate): 2820 nM; GI50 (SK-MEL-5 melanoma): 1630 nM; TGI (SK-MEL-5 melanoma): 2990 nM; GI50 (HOP-92 NSCLC): 814 nM; TGI (HOP-92 NSCLC): 2260 nM; GI50 (TK-10 renal): 493 nM; TGI (TK-10 renal): 1850 nM; GI50 (M14 melanoma): 621 nM; TGI (M14 melanoma): 2200 nM; GI50 (U251 CNS): 1630 nM; TGI (U251 CNS): 3010 nM; GI50 (MDA-MB-231 breast): 1370 nM; TGI (MDA-MB-231 breast): 2720 nM; GI50 (UACC-62 melanoma): 1420 nM; TGI (UACC-62 melanoma): 2760 nM; GI50 (SK-MEL-2 melanoma): 1430 nM; TGI (SK-MEL-2 melanoma): 3000 nM; GI50 (MOLT-4 leukemia): 962 nM; TGI (MOLT-4 leukemia): > 100000 nM; GI50 (NCI-H522 lung): 458 nM; TGI (NCI-H522 lung): 2010 nM; GI50 (HOP-62 NSCLC): 1280 nM; TGI (HOP-62 NSCLC): 2730 nM; GI50 (SNB-75 CNS): 445 nM; TGI (SNB-75 CNS): 2040 nM; GI50 (K-562 leukemia): 412 nM; TGI (K-562 leukemia): > 100000 nM; GI50 (NCI-H23 lung): 1590 nM; TGI (NCI-H23 lung): 3260 nM; GI50 (RPMI-8226 leukemia): 375 nM; TGI (RPMI-8226 leukemia): 6180 nM; GI50 (OVCAR-8 ovarian): 1210 nM; TGI (OVCAR-8 ovarian): 2870 nM; GI50 (SNB-19 CNS): 1710 nM; TGI (SNB-19 CNS): 3300 nM; GI50 (EKVX NSCLC): 1470 nM; TGI (EKVX NSCLC): 2780 nM; GI50 (HS 578T breast): 1820 nM; TGI (HS 578T breast): 4900 nM; GI50 (NCI-H226 lung): 1430 nM; TGI (NCI-H226 lung): 3130 nM; GI50 (SF-268 CNS): 1600 nM; TGI (SF-268 CNS): 3020 nM; GI50 (CAKI-1 renal): 619 nM; TGI (CAKI-1 renal): 2080 nM; GI50 (HCT-15 colon): 511 nM; TGI (HCT-15 colon): 2050 nM; GI50 (HT29 colon): 1600 nM; TGI (HT29 colon): 2940 nM; GI50 (MALME-3M melanoma): 1560 nM; TGI (MALME-3M melanoma): 2970 nM; GI50 (A549 NSCLC): 1790 nM; TGI (A549 NSCLC): 3720 nM; GI50 (SF-295 CNS): 4900 nM; TGI (SF-295 CNS): 17500 nM; GI50 (OVCAR-5 ovarian): 1750 nM; TGI (OVCAR-5 ovarian): 3290 nM; GI50 (PC-3 prostate): 677 nM; TGI (PC-3 prostate): 2270 nM; GI50 (LOX IMVI melanoma): 1180 nM; TGI (LOX IMVI melanoma): 2520 nM; GI50 (A498 renal): 1260 nM; TGI (A498 renal): 2870 nM; GI50 (ACHN renal): 746 nM; TGI (ACHN renal): 2020 nM; GI50 (HCT-116 colon): 235 nM; TGI (HCT-116 colon): 783 nM; GI50 (KM12 colon): 1760 nM; TGI (KM12 colon): 3450 nM; GI50 (786-0 renal): 551 nM; TGI (786-0 renal): 1980 nM; GI50 (RXF 393 renal): 1170 nM; TGI (RXF 393 renal): 2410 nM; GI50 (SF-539 CNS): 1480 nM; TGI (SF-539 CNS): 2810 nM; GI50 (MDA-MB-435): 1140 nM; TGI (MDA-MB-435): 2440 nM; GI50 (SK-MEL-28 melanoma): 1650 nM; TGI (SK-MEL-28 melanoma): 3020 nM; GI50 (HL-60(TB) leukemia): 3820 nM; TGI (HL-60(TB) leukemia): > 100000 nM; GI50 (OVCAR-4 ovarian): 1530 nM; TGI (OVCAR-4 ovarian): 3020 nM; GI50 (SW-620 colon): 497 nM; TGI (SW-620 colon): 1900 nM; GI50 (IGROV1 ovarian): 744 nM; TGI (IGROV1 ovarian): 2210 nM; GI50 (CCRF-CEM leukemia): 361 nM; TGI (CCRF-CEM leukemia): > 100000 nM; GI50 (UACC-257 melanoma): 1560 nM; TGI (UACC-257 melanoma): 2980 nM; GI50 (BT-549 breast): 1090 nM; TGI (BT-549 breast): 2700 nM; GI50 (COLO 205 colon): 1120 nM; TGI (COLO 205 colon): 2760 nM; GI50 (NCI-H460 lung): 1650 nM; TGI (NCI-H460 lung): 3340 nM; GI50 (SN12C renal): 1340 nM; TGI (SN12C renal): 2650 nM
